The target in series [1] is T1, Interleukin-8 receptors, CXCR1/CXCR2 (Homo sapiens) (UniProt P25025+P25024). Description: Inhibition of IL-8 interaction with CXCR1/CXCR2 in human PMN leukocytes assessed as reduction in leukocyte migration after 5 days in presence of Diff-Quick staining by matrigel based microscopic analysis. As to conditions: concentration not given here. It counts as cell-based.

Series [2] addresses T1, Interleukin-8 receptors, CXCR1/CXCR2 (Homo sapiens). The series can be described thus: Inhibition of […] interaction with CXCR1/CXCR2 in human PMN leukocytes assessed as reduction in leukocyte migration after 5 days in presence of Diff-Quick staining by matrigel based microscopic analysis. It counts as cell-based. As to conditions: concentration not given here.
For series [3] the target is unchanged. Description: Inhibition of GROalpha interaction with CXCR1/CXCR2 in human PMN leukocytes assessed as reduction in leukocyte migration after 5 days in presence of Diff-Quick staining by matrigel based microscopic analysis. The class given is cell-based. The settings on record: concentration not given here.
The test system of series [4] is Rattus norvegicus. The series can be described thus: Anti-inflammatory activity in Sprague-Dawley rat assessed as inhibition of LPS-induced TNFalpha production administered via oral gavage for 1 hr followed by LPS challenge measured after 1.5 hrs by ELISA. It counts as functional. Background: In an ELISA, binding on a coated surface is turned into a signal by an enzyme label.

Series [5] deals with A549. Description: Antiproliferative activity against human A549 cells after 72 hrs by MTT assay. The class given is functional, cell-based. The settings on record: A549, 72 h. On the technique in general: Tetrazolium assays rely on reduction of a dye to a coloured formazan, in cell work by metabolically active cells.
Series [6] concerns NIH3T3. The series can be described thus: Antiproliferative activity against mouse NIH/3T3 cells after 72 hrs by MTT assay. It counts as cell-based. The settings on record: NIH3T3, 72 h.
Series [7] concerns the target Disintegrin and metalloproteinase domain-containing protein 17 (Homo sapiens, UniProt P78536). The series can be described thus: Inhibition of recombinant TACE catalytic domain (unknown origin) using pro-TNFalpha peptide Abz-LAQAVRSSSR-Dpa as substrate preincubated for 10 mins followed by substrate addition measured after 10 mins by FRET assay.
The subject of series [8] is Rattus norvegicus. Description: Antifibrotic activity in […] rat bleomycin-induced pulmonary fibrosis model assessed as hydroxyproline content in lung at 0.04 g/day administered via oral gavage by spectrophotometric analysis. It counts as functional.
A short description of series [9]: Elimination half life in healthy human at 801 mg. It counts as ADME. The settings on record: in vivo, read-out: beta t1/2 (converted).
Series [10] deals with T2, Mitogen-activated protein kinase kinase kinase 5 (Homo sapiens, UniProt Q99683).
T2 sequence (Q99683 whole entry): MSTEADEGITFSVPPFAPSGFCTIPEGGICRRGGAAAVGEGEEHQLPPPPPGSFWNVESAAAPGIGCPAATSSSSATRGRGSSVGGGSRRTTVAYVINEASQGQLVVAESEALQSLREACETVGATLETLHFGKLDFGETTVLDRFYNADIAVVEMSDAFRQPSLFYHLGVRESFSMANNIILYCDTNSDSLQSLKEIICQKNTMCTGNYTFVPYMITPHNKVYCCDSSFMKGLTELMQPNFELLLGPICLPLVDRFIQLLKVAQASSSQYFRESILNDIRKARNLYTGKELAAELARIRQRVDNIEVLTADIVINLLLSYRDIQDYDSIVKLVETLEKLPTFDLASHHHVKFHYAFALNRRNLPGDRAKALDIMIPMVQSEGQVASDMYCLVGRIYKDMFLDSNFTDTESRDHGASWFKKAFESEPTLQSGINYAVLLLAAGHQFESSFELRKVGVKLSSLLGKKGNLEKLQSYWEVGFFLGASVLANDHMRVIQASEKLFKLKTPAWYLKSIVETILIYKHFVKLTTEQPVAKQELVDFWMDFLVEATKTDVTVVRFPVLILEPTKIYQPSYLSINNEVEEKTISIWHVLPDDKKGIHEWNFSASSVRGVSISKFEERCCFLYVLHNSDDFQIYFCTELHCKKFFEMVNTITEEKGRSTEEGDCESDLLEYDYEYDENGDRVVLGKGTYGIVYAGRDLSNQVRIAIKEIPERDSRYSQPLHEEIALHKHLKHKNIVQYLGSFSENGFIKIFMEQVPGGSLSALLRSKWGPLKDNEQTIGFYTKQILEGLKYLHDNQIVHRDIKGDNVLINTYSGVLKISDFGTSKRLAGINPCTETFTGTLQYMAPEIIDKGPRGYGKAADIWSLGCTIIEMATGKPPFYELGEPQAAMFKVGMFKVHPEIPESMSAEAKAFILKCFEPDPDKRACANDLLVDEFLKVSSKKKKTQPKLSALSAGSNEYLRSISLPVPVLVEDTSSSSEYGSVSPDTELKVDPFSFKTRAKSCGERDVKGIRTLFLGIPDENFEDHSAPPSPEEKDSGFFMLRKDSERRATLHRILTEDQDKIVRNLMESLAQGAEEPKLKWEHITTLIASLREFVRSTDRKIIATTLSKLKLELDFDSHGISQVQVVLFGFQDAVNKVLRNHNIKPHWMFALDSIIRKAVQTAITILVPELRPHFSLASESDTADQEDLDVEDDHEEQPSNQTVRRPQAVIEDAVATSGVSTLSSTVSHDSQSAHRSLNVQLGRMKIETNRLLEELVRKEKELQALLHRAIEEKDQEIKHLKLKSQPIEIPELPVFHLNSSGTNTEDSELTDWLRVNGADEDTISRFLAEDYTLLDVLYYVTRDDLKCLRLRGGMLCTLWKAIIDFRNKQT
The series can be described thus: Inhibition of recombinant human ASK1 using STK3 peptide as substrate incubated for 30 mins followed by ATP addition measured for 3 hrs by TR-FRET assay.

Series [11] relates to NIH3T3. Description: Anticancer activity against mouse NIH/3T3 cells after 24 hrs by cell titer 96 aqueous one solution based assay. As to conditions: NIH3T3, 24 h.
The nature of series [12]: Inhibition of Wnt/beta-catenin signaling in human NL-20 cells by beta-catenin-based reporter assay. It counts as cell-based. As to conditions: NL20. For orientation: Reporter assays use an easily measured gene product as a stand-in for the process of interest.
For series [13], the system named is NIH3T3. The series can be described thus: Antiproliferative activity against mouse NIH/3T3 cells by MTT assay. The class given is cell-based.
A short description of series [14]: Inhibition of TGF-beta (unknown origin). More on the design: species or system Homo sapiens.
For series [15], the system named is A549. The series can be described thus: Anticancer activity against human A549 cells after 24 hrs by cell titer 96 aqueous one solution based assay. The class given is functional. As to conditions: A549, 24 h.
Series [16] relates to NIH3T3. Description: Antiproliferative activity against mouse NIH/3T3 cells. The class given is cell-based.
Series [17] has as its target Cathepsin B (Homo sapiens, UniProt P07858). Description: Inhibition of human liver cathepsin B using Boc-Leu-Arg-Arg-AMC as substrate preincubated for 15 mins followed by substrate addition measured after 30 mins by spectrofluorimetric analysis.

Chain of Disintegrin and metalloproteinase domain-containing protein 17 (P78536 whole entry, the tested form may be a part): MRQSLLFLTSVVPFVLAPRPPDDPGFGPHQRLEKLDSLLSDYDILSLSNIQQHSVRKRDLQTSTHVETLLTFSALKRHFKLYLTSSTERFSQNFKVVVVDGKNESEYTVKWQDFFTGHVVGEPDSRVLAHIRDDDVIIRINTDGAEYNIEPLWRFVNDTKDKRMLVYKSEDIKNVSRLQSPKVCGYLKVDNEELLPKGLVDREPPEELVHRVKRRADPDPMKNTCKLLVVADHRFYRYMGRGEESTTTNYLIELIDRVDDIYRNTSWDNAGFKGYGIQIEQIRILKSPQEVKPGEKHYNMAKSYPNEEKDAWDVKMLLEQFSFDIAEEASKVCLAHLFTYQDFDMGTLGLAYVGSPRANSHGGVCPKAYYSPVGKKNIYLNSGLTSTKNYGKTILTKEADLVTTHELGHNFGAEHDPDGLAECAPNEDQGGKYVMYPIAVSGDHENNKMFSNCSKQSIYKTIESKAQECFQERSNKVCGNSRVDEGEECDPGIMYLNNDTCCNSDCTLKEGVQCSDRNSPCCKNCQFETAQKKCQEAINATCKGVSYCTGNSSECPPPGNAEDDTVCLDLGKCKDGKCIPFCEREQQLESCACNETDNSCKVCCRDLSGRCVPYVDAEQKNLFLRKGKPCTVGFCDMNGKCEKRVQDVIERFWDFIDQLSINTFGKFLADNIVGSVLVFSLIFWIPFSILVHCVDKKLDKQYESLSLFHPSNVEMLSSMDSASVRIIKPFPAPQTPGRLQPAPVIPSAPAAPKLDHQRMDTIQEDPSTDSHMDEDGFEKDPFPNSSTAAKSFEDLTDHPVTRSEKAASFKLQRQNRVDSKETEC

A word on the inhibition: it is the drop in the measured response relative to a control, in per cent. Consider `C[C@@H](C(=O)NCCN1CCCC1)c1ccc(OS(=O)(=O)C(F)(F)F)cc1`, for which the inhibition in [1] was 52%; in [2] it was 65%; in [3], 0%.
On to `CNC(=O)C1c2nc(C3CCC(NC(=O)COC)CC3)nc(-c3cc(C)ccc3OC3CC3)c2NC1C` (stereo not given), for which, in series [4], the “inhibition (INH)” value was 7 - 99%.
One may read the IC50 as the midpoint of a concentration-inhibition curve. As for `COc1ccc(Cn2cc(COc3ccc(F)cc3)ccc2=O)cc1`, the IC50 in [5] stood at 20 µM; in [6], 55 µM.
`Cc1cc(COc2ccc(S(=O)(=O)N[C@@H]3CCC[C@@H]3C(=O)NO)cc2)c2ccccc2n1`: the IC50 in series [7] stood at 0.0006 µM.
Regarding `Cc1ccc(=O)n(-c2ccccc2)c1` [PIRFENIDONE], it took 454 µM to reach half-maximal inhibition in [6] (IC50). For the same compound, in series [8], the Activity is 158.39 µmol. Further, the half-life in series [9] was 3 h.
`O=c1ccc(CNc2ccccc2F)cn1Cc1ccccc1` showed an IC50 in series [6] of 3 µM.
As to `CC(n1cnnc1-c1nc(NC(=O)c2cc(-n3cnc(C4CC4)c3)c(N3CCCCC3)cn2)cs1)C(F)(F)F` (stereo not given), the IC50 in series [10] came out at 0.0007 µM.
Turning to `CNC(=O)C1c2nc(C3CCC(NC(=O)COC)CC3)nc(-c3cc(C(F)(F)F)ccc3OC3CC3)c2NC1C` (stereo not given), the “inhibition (INH)” value in series [4] is recorded as 7 - 99%.
Same read-out and setting: in the case of `CNC(=O)C1c2nc(C3CCC(NC(C)=O)CC3)nc(-c3cc(C(F)(F)F)ccc3OC3CC3)c2NC1C` (stereo not given) it was 7 - 99%.
`CCOc1ccc(-n2c(C)cc(C)c(C#N)c2=O)cc1`: the Activity in series [8] was 119.55 µmol.
In series [11], `Cc1cccc(-n2cc(COc3ccccc3)ccc2=O)c1` yielded an IC50 of 16 µM.
For the compound `CNC(=O)C1c2nc(C3CCC(NC(=O)COC)CC3)nc(-c3ccc(F)cc3OC3CC3)c2NC1C` (stereo not given), the “inhibition (INH)” value in [4] was 7 - 99%.
`CN(C)c1cncc(-c2cnc3[nH]nc(-c4nc5c(-c6cccc(F)c6)cncc5[nH]4)c3c2)c1` registered an IC50 in series [12] of 0.44 to 1.9 µM.
As for `Cc1cc(CC(C)C)ccc1CC(=O)NS(C)(=O)=O`, the results for the inhibition in [1] and in series [3] were 67% and 0%, respectively.
Consider `Cc1ccc(=O)n(-c2cccc(F)c2)c1` [FLUOROFENIDONE], for which, in [13], the IC50 was found to be 4200 µM.
For `CN(C)c1cncc(-c2cnc3[nH]nc(-c4nc5c(-c6cccs6)cncc5[nH]4)c3c2)c1`, the IC50 in [12] is 1.09 µM.
Consider `C[C@@H](C(=O)NCCCN1CCCC1)c1ccc(OS(=O)(=O)C(F)(F)F)cc1`, for which the inhibition in [1] was found to be 51%; in [2], 67%; in series [3], 0%.
The compound `CC(C)Nc1cncc(-c2cnc3[nH]nc(-c4nc5c(-c6cncc(F)c6)cncc5[nH]4)c3c2)c1` came in with a concentration for half-maximal inhibition (IC50) in series [12] of 0.067 µM.
In series [14], `CNC(=O)c1cnccc1Nc1nc(-c2cc(Cl)ccc2F)nc2ncccc12` showed an IC50 of 0.07 µM.
Consider `CCC(=O)NC1CCC(c2nc(-c3cc(C(F)(F)F)ccc3OC3CC3)c3c(n2)C(C(=O)NC)C(C)N3)CC1` (stereo not given), for which the “inhibition (INH)” value in [4] is recorded as 7 - 99%.
`Cc1cccc(-n2cc(CNc3ccccc3)ccc2=O)c1` gave an IC50 in series [15] of 130 µM.
As for `CCC(=O)c1cccc(CC(=O)O)c1Cl`, the values for the inhibition in series [1] and in series [3] were 67% and 27%, respectively.
Regarding `CCOc1ccc(-n2c(N)c(C#N)c(-c3ccccc3)c(C#N)c2=O)cc1`, the Activity in [8] worked out at 48.55 µmol.
On to `CO[C@H]1O[C@H](CNc2ccccc2Cn2cc(C(F)(F)F)ccc2=O)[C@@H](O)[C@H](O)[C@H]1O`, for which the half-inhibitory concentration (IC50) in [16] was 170 µM.
`Nc1cncc(-c2cnc3[nH]nc(-c4nc5c(-c6cccc(F)c6)cncc5[nH]4)c3c2)c1` gave an IC50 in series [12] of 0.175 µM.
As for `O=C(O)c1cc2c(O)cccc2n(-c2ccc(F)cc2Cl)c1=O`, it took 90 µM to reach half-maximal inhibition in series [13] (IC50).
In turn, `O=c1ccc(COc2ccccc2)cn1-c1ccc(Cl)cc1` registered an IC50 in series [11] of 14 µM.
Turning to `O=c1ccc2c(n1-c1ccc(Br)cc1)CCCC2O` (stereo not given), 300 µM corresponded to half-maximal inhibition in [13] (IC50).
Consider `NC(=O)c1cnccc1Nc1nc(-c2cc(Cl)ccc2F)nc2ncccc12`, for which the IC50 in series [14] came out at 0.02 µM.
As to `Cc1cccc(NCc2ccc(=O)n(Cc3ccccc3)c2)c1`, the IC50 in series [5] turned out to be 130 µM.
In turn, `COc1ccc2c(O[C@@H]3C[C@H](C(=O)N[C@@H](CC4CC4)C(=O)C(=O)NC4CC4)N(C[C@@H](NC(=O)NC(C)(C)C)C(C)(C)C)C3)nccc2c1` came in with an IC50 in [17] of 0.027 µM.
